We go through 1 compound from paper PMC4700268 (Frontiers in Pharmacology, 2016).

One assay deals with T1, hCNT2 (Homo sapiens, UniProt O43868).
T1 sequence (O43868 1-658): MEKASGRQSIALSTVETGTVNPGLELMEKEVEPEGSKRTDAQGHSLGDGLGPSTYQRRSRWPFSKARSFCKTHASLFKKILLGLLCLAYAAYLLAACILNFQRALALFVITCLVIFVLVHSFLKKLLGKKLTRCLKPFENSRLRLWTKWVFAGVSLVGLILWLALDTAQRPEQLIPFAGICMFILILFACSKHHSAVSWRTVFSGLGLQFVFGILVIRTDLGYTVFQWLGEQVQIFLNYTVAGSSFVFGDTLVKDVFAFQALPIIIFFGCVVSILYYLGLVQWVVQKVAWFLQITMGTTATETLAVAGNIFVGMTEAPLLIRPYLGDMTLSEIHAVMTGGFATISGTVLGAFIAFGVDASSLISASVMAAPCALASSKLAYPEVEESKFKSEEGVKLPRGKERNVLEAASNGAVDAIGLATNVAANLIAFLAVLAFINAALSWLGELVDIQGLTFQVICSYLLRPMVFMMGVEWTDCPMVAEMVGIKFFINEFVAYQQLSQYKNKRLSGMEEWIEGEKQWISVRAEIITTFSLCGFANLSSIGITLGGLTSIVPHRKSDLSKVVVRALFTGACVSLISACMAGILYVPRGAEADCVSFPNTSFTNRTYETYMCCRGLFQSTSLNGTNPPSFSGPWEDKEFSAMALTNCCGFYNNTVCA
Description: [3H]ETV uptake in hCNT2 transfected cells. The note with it: 5 min, 37°C.

The target of assay [1] is T2, hOAT1 (Homo sapiens, UniProt Q4U2R8).
T2 sequence (Q4U2R8 1-563): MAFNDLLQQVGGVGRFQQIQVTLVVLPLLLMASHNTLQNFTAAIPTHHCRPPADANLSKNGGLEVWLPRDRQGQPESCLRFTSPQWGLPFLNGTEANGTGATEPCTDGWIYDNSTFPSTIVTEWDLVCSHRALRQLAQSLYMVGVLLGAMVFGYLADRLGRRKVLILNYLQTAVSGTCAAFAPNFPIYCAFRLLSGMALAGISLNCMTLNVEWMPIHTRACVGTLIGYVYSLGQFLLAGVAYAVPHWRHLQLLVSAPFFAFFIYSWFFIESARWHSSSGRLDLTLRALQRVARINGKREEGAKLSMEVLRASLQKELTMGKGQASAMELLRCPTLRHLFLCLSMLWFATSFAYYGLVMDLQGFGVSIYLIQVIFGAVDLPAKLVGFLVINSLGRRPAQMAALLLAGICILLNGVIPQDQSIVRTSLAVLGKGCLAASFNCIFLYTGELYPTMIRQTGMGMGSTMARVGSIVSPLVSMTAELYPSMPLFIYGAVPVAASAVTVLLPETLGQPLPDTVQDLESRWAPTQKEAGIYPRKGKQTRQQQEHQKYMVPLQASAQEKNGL
On the set-up: host or cells: HeLa cells, transient transfection; method as in Xu et al., 2013. Conditions: ref Xu et al., 2013; read-out: Km for hOAT1, previously published; cited from earlier work.

The target of assay [2] is T2, hOAT1. In words: Inhibition by ETV of [3H]adefovir, [3H]tenofovir, [3H]cidofovir accumulation in hOAT1 transfected HeLa cells. On the set-up: host or cells: HeLa cells, transient transfection. Conditions: 2 min. Format: in vitro ADME. Here is the method:
Inhibitory transport assays were carried out in 24-well plates as described previously ([Mandikova et al., 2013]). Transport assays in HeLa cells transiently transfected with the hOAT1 expression construct were performed 48 h after transfection. Transport assays in MDCK II cells transiently transfected with hOCT2, hCNT2 or hCNT3 were performed 24 h after transfection. The cultivation medium was removed and the cells were washed with transport solution and preincubated for 10 min at 37°C. The standard radiolabeled substrate or tested radioactive antiviral substance dissolved in transport solution was added to the cells and incubated for 2 min. […] After the designated time period, the incubation was stopped by washing the cells twice with ice-cold solution containing 137 mM NaCl and 10 mM HEPES, pH 7.4. The cells were disintegrated with 0.1 mL of Triton X 0.5% in 100 mM NaOH for 1 h. […] IC50 values were calculated using non-linear regression analysis using GraphPad Prism software (version 6).

Where two headings read alike, the source gives them in different places.

For the compound `C=C1[C@H](CO)[C@@H](O)C[C@@H]1n1cnc2c(=O)[nH]c(N)nc21` [ETV, Entecavir], the “Vmax of [3H]ETV uptake by hCNT2” value on hCNT2 stood at 68.88 nmol/mg protein/5 min. For the same compound, on hOAT1 [1], the Km is 250 µM. Moreover, the IC50 against hOAT1 [2] (IC50, inhibition of [3H]cidofovir accumulation by hOAT1, [3H]cidofovir 70 μM) was determined as 695 µM; at hOAT1 [2] ([3H]adefovir 0.1 μM, read-out: IC50, inhibition of [3H]adefovir accumulation by hOAT1) it was 432 µM; at hOAT1 [2] ([3H]tenofovir 0.5 μM, read-out: IC50, inhibition of [3H]tenofovir accumulation by hOAT1), 704 µM.
